Results as given in patent publication US20080287430A1, “Furan Compounds Useful As Ep1 Receptor Antagonists” (priority 2005, published 2008).
Counter-ions that a name gives are not always drawn.

Experiments:
[1] = tested on: gastric lesions in rats; details: lesions induced by taurocholate acid, aspirin or indomethacin, J Pharmacol Exp Ther 1992, 263(1), 374-380; cited from earlier work
[2] = molecular target: T1, human EP1 receptor (Homo sapiens, UniProt P34995); experiment: Binding assay for the human prostanoid EP1 receptor (competition with [3H]-PGE2); details: binding to human EP1 receptor, [3H]-PGE2 competition, CHO-K1 cell membranes; averages of a number of experiments; read-out: pIC50 value (converted)
T1 construct: expressed in transfected cells; host or cells: CHO-K1
T1 sequence (P34995 1-402): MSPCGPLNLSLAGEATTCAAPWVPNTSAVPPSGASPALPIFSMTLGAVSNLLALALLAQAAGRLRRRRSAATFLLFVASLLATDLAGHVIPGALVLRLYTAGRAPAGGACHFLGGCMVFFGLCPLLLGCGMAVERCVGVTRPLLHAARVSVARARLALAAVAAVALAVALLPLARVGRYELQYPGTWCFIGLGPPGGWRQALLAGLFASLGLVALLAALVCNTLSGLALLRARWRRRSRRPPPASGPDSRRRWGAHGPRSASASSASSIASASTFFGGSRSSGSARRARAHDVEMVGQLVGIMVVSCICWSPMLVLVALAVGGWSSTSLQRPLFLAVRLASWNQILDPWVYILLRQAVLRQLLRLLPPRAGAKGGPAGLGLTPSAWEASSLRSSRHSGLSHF
Protocol: Competition assay using [^3H]-PGE2.
Compound potencies are determined using a radioligand binding assay. In this assay compound potencies are determined from their ability to compete with tritiated prostaglandin E2 ([^3H]-PGE2) for binding to the human EP1 receptor.
This assay utilises Chinese hamster ovary-K1 (CHO-K1) cells into which a stable vector containing the EP1 cDNA has previously been transfected. Cells are cultured in suitable flasks containing culture medium such as DMEM:F-12 supplemented with 10% v/v foetal calf serum, 2 mM L-glutamine, 0.25 mg/ml geneticin, 10 μg/ml puromycin and 10 μM indomethacin.
Cells are detached from the culture flasks by incubation in calcium and magnesium free phosphate buffered saline containing 1 mM disodium ethylenediaminetetraacetic acid (Na2EDTA) and 10 μM indomethacin for 5 min. The cells are isolated by centrifugation at 250×g for 5 mins and suspended in an ice cold buffer such as 50 mM Tris, 1 mM Na2EDTA, 140 mM NaCl, 10 μM indomethacin (pH 7.4). The cells are homogenised using a Polytron tissue disrupter (2×10 s burst at full setting), centrifuged at 48,000×g for 20 mins and the pellet containing the membrane fraction is washed (optional) three times by suspension and centrifugation at 48,000×g for 20 mins. The final membrane pellet is suspended in an assay buffer such as 10 mM 2-[N-morpholino]ethanesulphonic acid, 1 mM Na2EDTA, 10 mM MgCl2 (pH 6). Aliquots are frozen at −80° C. until required.
For the binding assay the cell membranes, competing compounds and [^3H]-PGE2 (3 nM final assay concentration) are incubated in a final volume of 100 μl for 30 min at 30° C. All reagents are prepared in assay buffer. Reactions are terminated by rapid vacuum filtration over GF/B filters using a Brandell cell harvester. The filters are washed with ice cold assay buffer, dried and the radioactivity retained on the filters is measured by liquid scintillation counting in Packard TopCount scintillation counter.
The data are analysed using non linear curve fitting techniques to determine the concentration of compound producing 50% inhibition of specific binding (IC50).

[3] = molecular target: T1, human EP1 receptor; experiment: human EP1 calcium mobilisation assay; format: cell-based; details: human EP1, PGE2-induced calcium mobilisation in CHO-K1 cells; free bases or sodium salts; averages of a number of experiments; read-out: functional pKi value (converted)
In short: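 CHO-K1 cells stably expressing human EP1, loaded with Fluo-4 after 24 h at 37° C; compounds added before PGE2 challenge. Inhibition of PGE2-induced [Ca2+]i rise read by FLIPR fluorescence; pIC50 from curve fitting of half-maximal inhibition.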

[4] = tested on: rat model of chronic constriction injury; details: Anesthesia and Analgesia 2001, 93, 1012-7; cited from earlier work
[5] = tested on: rodent model of post-operative pain; details: Anesthesia and Analgesia 2001, 92, 233-238; cited from earlier work

Structure (SMILES) | gastric lesions [1] | IC50 [2] | Ki [3] | hyperalgesia and allodynia [4] | mechanical hyperalgesia [5]
O=C(O)Cc1ccc(CCNS(=O)(=O)c2ccc(Cl)cc2)cc1 [BM 13505] | inhibit gastric lesions |  |  |  | 
CC(C)COc1ccc(Cl)cc1Cc1ccc(-c2nc3cc(N4CCN(C)CC4)ccc3[nH]2)o1 [Example 111, 2-[5-({5-Chloro-2-[(2-methylpropyl)oxy]-phenyl}methyl)-2-furanyl]-5-(4-methyl-1-piperazinyl)-1H-benzimidazoletrihydrochloride] |  | ≤ 10 nM | < 1000 nM |  | 
CC(C)COc1ccc(Cl)cc1Cc1ccc(-c2nc3ccc(N4CCOCC4)cc3[nH]2)o1 [Example 112, 2-[5-({5-Chloro-2-[(2-methylpropyl)oxy]-phenyl}methyl)-2-furanyl]-5-(4-morpholinyl)-1H-benzimidazoledihydrochloride] |  | ≤ 10 nM | < 1000 nM |  | 
CC(C)COc1ccc(Cl)cc1Cc1ccc(-c2nc3ccc(N(C)C)cc3[nH]2)o1 [Example 113, 2-[5-({5-Chloro-2-[(2-methylpropyl)oxy]-phenyl}methyl)-2-furanyl]-N,N-dimethyl-1H-benzimidazol-5-aminedihydrochloride] |  | ≤ 10 nM | < 1000 nM |  | 
CC(C)COc1ccc(Cl)cc1Cc1ccc(-c2nc3ccc(CCO)cc3[nH]2)o1 [Example 115, 2-{2-[5-({5-Chloro-2-[(2-methylpropyl)oxy]-phenyl}methyl)-2-furanyl]-1H-benzimidazol-5-yl}ethanolhydrochloride] |  | ≤ 10 nM | < 1000 nM |  | 
CC(C)COc1ccc(Cl)cc1Cc1ccc(-c2nc3cnccc3[nH]2)o1 [Example 117, 2-[5-({5-Chloro-2-[(2-methylpropyl)oxy]phenyl}-methyl)-2-furanyl]-1H-imidazo[4,5-c]pyridine] |  | ≤ 10 nM | < 1000 nM |  | 
CC(C)COc1ccc(Cl)cc1Cc1ccc(-c2nc3ccc(CO)cc3[nH]2)o1 [Example 132] |  | ≤ 10 nM | < 1000 nM |  | 
OCc1ccc2nc(-c3ccc(Cc4cc(Cl)ccc4OCc4ccccc4)o3)[nH]c2c1 [Example 133, {2-[5-({5-Chloro-2-[(phenylmethyl)oxy]phenyl}methyl)-2-furanyl]-1H-benzimidazol-5-yl}methanol] |  | ≤ 10 nM | < 1000 nM |  | 
CC(C)COc1ccc(Cl)cc1Cc1ccc(-c2nc3nc(Br)cnc3[nH]2)o1 [Example 136, 5-Bromo-2-[5-({5-chloro-2-[(2-methylpropyl)oxy]phenyl}methyl)-2-furanyl]-1H-imidazo[4,5-b]pyrazine hydrochloride] |  | ≤ 10 nM | > 1000 nM |  | 
CC(C)COc1ccc(Cl)cc1Cc1ccc(-c2nc3ccc(CN(C)C)cc3[nH]2)o1 [Example 142, ({2-[5-({5-Chloro-2-[(2-methylpropyl)oxy]-phenyl}methyl)-2-furanyl]-1H-benzimidazol-5-yl}methyl)dimethyl-amine dihydrochloride] |  | ≤ 10 nM | < 1000 nM |  | 
CC(C)COc1ccc(Cl)cc1Cc1ccc(-c2nc3ccc(CN4CCCC4)cc3[nH]2)o1 [Example 143, 2-[5-({5-Chloro-2-[(2-methylpropyl)oxy]-phenyl}methyl)-2-furanyl]-5-(1-pyrrolidinylmethyl)-1H-benzimidazoledihydrochloride] |  | ≤ 10 nM | < 1000 nM |  | 
CC(C)COc1ccc(Cl)cc1Cc1ccc(-c2nc3ccc(CN4CCN(C)CC4)cc3[nH]2)o1 [Example 145, 2-[5-({5-Chloro-2-[(2-methylpropyl)oxy]-phenyl}methyl)-2-furanyl]-5-[(4-methyl-1-piperazinyl)methyl]-1H-benzimidazoletrihydrochloride] |  | ≤ 10 nM | < 1000 nM |  | 
CCN1CCN(Cc2ccc3nc(-c4ccc(Cc5cc(Cl)ccc5OCC(C)C)o4)[nH]c3c2)CC1 [Example 146, 2-[5-({5-Chloro-2-[(2-methylpropyl)oxy]-phenyl}methyl)-2-furanyl]-5-[(4-ethyl-1-piperazinyl)methyl]-1H-benzimidazoletrihydrochloride] |  | ≤ 10 nM | < 1000 nM |  | 
CC(C)COc1ccc(Cl)cc1Cc1ccc(-c2nc3ccc(CN4CCCCC4)cc3[nH]2)o1 [Example 147, 2-[5-({5-Chloro-2-[(2-methylpropyl)oxy]-phenyl}methyl)-2-furanyl]-5-(1-piperidinylmethyl)-1H-benzimidazoledihydrochloride] |  | ≤ 10 nM | < 1000 nM |  | 
COCCN(C)Cc1ccc2nc(-c3ccc(Cc4cc(Cl)ccc4OCC(C)C)o3)[nH]c2c1 [Example 148, N-({2-[5-({5-Chloro-2-[(2-methylpropyl)oxy]-phenyl}methyl)-2-furanyl]-1H-benzimidazol-5-yl}methyl)-N-methyl-2-(methyloxy)ethanaminedihydrochloride] |  | ≤ 10 nM | < 1000 nM |  | 
CC(C)COc1ccc(Cl)cc1Cc1ccc(-c2nc3ccc(CN(C)CCC#N)cc3[nH]2)o1 [Example 149, 3-[({2-[5-({5-Chloro-2-[(2-methylpropyl)oxy]-phenyl}methyl)-2-furanyl]-1H-benzimidazol-5-yl}methyl)(methyl)-amino]propanenitriledihydrochloride] |  | ≤ 10 nM | < 1000 nM |  | 
CC(C)COc1ccc(Cl)cc1Cc1ccc(-c2nc3ccc(CN(C)C(C)C)cc3[nH]2)o1 [Example 151, N-({2-[5-({5-Chloro-2-[(2-methylpropyl)oxy]-phenyl}methyl)-2-furanyl]-1H-benzimidazol-5-yl}methyl)-N-methyl-2-propanaminedihydrochloride] |  | ≤ 10 nM | < 1000 nM |  | 
CC(C)COc1ccc(Cl)cc1Cc1ccc(-c2nc3ccc(CNCCO)cc3[nH]2)o1 [Example 156, 2-[({2-[5-({5-Chloro-2-[(2-methylpropyl)oxy]-phenyl}methyl)-2-furanyl]-1H-benzimidazol-5-yl}methyl)amino]-ethanol] |  | ≤ 10 nM | < 1000 nM |  | 
CC(C)COc1ccc(Cl)cc1Cc1ccc(-c2nc3ccc(CCN4CCN(C)CC4)cc3[nH]2)o1 [Example 162, 2-[5-({5-Chloro-2-[(2-methylpropyl)oxy]-phenyl}methyl)-2-furanyl]-5-[2-(4-methyl-1-piperazinyl)ethyl]-1H-benzimidazoletrihydrochloride] |  | ≤ 10 nM | < 1000 nM |  | 
CNCc1ccc2[nH]c(-c3ccc(Cc4cc(Cl)ccc4OCC(C)C)o3)nc2c1 [Example 166, ({2-[5-({5-Chloro-2-[(2-methylpropyl)oxy]phenyl}methyl)-2-furanyl]-1H-benzimidazol-5-yl}methyl)methylamine dihydrochloride] |  | ≤ 10 nM | < 1000 nM |  | 
Cc1cc(Cl)ccc1S(=O)(=O)NC[C@H]1C2CCC(CC2)[C@@H]1/C=C\CCCC(=O)O [ONO-8711] |  |  |  | reduces hyperalgesia and allodynia | inhibits mechanical hyperalgesia
